Assay results: US5494803A, “Immunodiagnostic assay using liposomes carrying labels thereof on outer liposome surface” (North Carolina State University, priority 1994, dated 1996)

Assays:
Anti-Biotin Antibody = details: half-hour exposure, ten-minute PBS wash
Method: PMMA cuvettes were cleaned by sonication for twelve hours in RBS solution, followed by sonication in deionized water for twenty-four hours. The cuvettes were incubated in 0.2 ml of 40 μg/ml of anti-biotin antibody (ABA) solution in PBS for two hours at room temperature and rinsed with 0.4 ml PBS twice to remove unbound antibody. The cuvettes were then incubated in 0.2 ml of 3 weight % BSA solution in PBS as a blocking agent for one hour at room temperature, and rinsed twice with 0.4 ml of PBS. […]
A manual shutter 22 was attached to the laser so that essentially no light would reach the sample when the shutter was closed. […] The emitted fluorescence was detected by a photomultiplier tube 29 (Hamamatsu Co., Hamamatsu, Japan). A 520 nm filter 28 was placed on top of the tube so that only the emitted light from fluorescein would be measured. The output from the photomultiplier 29 was sent to a preamplifier, not shown, (Model C716, Hamamatsu) and recorded using a digital photon counter 30 (Model C1230, Hamamatsu). […]
The adsorption of fluorescent biotin-conjugated liposomes and FITC-Biotin to the surface of the PMMA cuvettes was studied by measuring the amount of fluorescence remaining on the surface of the cuvette after exposure to a known concentration of fluorescent species and a washing step with PBS. […]

[1] = target: anti-biotin antibody (ABA); test: C^14-biotin adsorption to antibody-coated PMMA slides (radioimmunoassay isotherm, Langmuir fit); assay type: binding
Method: The adsorption of biotin to the antibody-coated PMMA surface was studied by exposing the surfaces to C^14 -labeled biotin, washing the slides, and determining the amount of radioactivity remaining on the solid support at different initial concentrations of biotin in the bulk solution. Four PMMA slides (1.5 cm×1.5 cm) coated with antibody, as described above, were incubated in 10 ml of C^14 -biotin PBS solutions in the concentration range from 10^-8 to 10^-4 M. After a ninety minute exposure, the slides were dipped quickly in 200 ml of deionized water to remove unbound C^14 -biotin from the surface. The radioactivity of the slides was determined by scintillation counting. […] As a control, the non-specific adsorption of C^14 -biotin to PMMA alone and to BSA-covered PMMA was tested the same way, using a C^14 -biotin concentration of 10^-4 M.
The ability of the antibody-covered surface to bind biotin based on the results of radioimmunoassays is indicated by the isotherm shown in FIG. 3. The number of moles of biotin bound per unit area of surface is shown as a function of the initial concentration of biotin to which the surface was exposed. […] Assuming that each antibody molecule adsorbed to the surface can bind two biotin molecules, this corresponds to 0.88×10^-12 moles of active ABA/cm^2. […]
The quantity av is the ratio (A/V) which equals 1.88 cm^-1 in these experiments. […]

[2] = tested on: anti-biotin antibody (ABA)
Method: The adsorption of fluorescent biotin-conjugated liposomes and FITC-Biotin to the surface of the PMMA cuvettes was studied by measuring the amount of fluorescence remaining on the surface of the cuvette after exposure to a known concentration of fluorescent species and a washing step with PBS. One milliliter of solution containing fluorescent species was injected into the inlet of the cuvette 27 with a syringe, and the solution was allowed to stand in the cuvette for either half an hour or an hour, depending on the experiment. Unbound fluorescent molecules were then washed from the cuvette by pumping PBS with a peristaltic pump at a flow rate of 1 /min. After washing, the shutter 22 on the laser 21 was opened for a few seconds, until the digital reading on the photomultiplier tube counter 30 stabilized. This was recorded as the fluorescent signal in kilo-counts per second (KCPS) coming from the interface. […] This was done when it was necessary to investigate the role of the washing step in reducing the measured fluorescence signal. […]
The maximum signal obtained for adsorbed vesicles, at very high molar concentrations of liposomes, is approximately 1250 KCPS. The quantity λL is estimated by taking the measured fluorescence at a given set of concentrations, and dividing by the maximum signal value for full surface coverage.

fluorescein isothiocyanate-biotin [FITC-Biotin]
association constant of FITC-Biotin to ABA (in words) (Anti-Biotin Antibody): very low association constant

O=C(O)CCCC[C@@H]1SC[C@@H]2NC(=O)N[C@@H]21 [biotin]
Kd ([1]; Langmuir isotherm best fit, PMMA coated with ABA, blocked with BSA, PBS, read-out: equilibrium binding constant K (KB) of biotin on adsorbed ABA (converted)): 400 nM | saturation level of biotin bound per unit area of surface ([1]; biotin concentrations greater than 10^-4 M): approximately 1.8×10^-12 moles of biotin/cm^2 | free biotin concentration at which the decrease in fluorescence commences (experimental) ([2]; liposomes 0.01 or 0.03 mg/ml): approximately 2×10^-5 M | free biotin concentration at which fluorescence should decrease significantly (simple Langmuir model) ([2]; predicted from KB and KL): approximately 4×10^-7 M
